The values below come from US20080254993A1, “Use of abscisic acid analogs to enhance growth control” (priority 2007, published 2008).

Experiment [1] deals with Kentucky bluegrass. Description: Greenhouse study on Kentucky bluegrass: turfgrass height, clip weight, turfgrass quality (Example 1). It counts as in vivo. On the procedure:
Greenhouse studies were conducted at the Research Farm of Valent BioSciences Corporation (Long Grove, Ill.). Grasses were grown in pots (18 cm in diameter and 18 cm in height) filled with Promix BX (available from Premier Horticulture Inc. Quakertown, Pa.). Grass was irrigated daily by an overhead irrigation system. The irrigation system was set up with multiple Tornado Mist Spray Heads (10 GPH at 40 PSI-Wetted diameter, NDS/Raindrip, Woodland Hills, Calif.). Spray heads were 1-meter apart from each other and 75 cm above grass canopy. Grass was cut with a scissor at 2.5 cm height and fertilizer (1 g/L all purpose fertilizer 20-20-20, available from The Scotts Company, Marysville, Ohio) was applied once per week.
(§1) Chemical solutions were prepared with distilled water. Tween 20 (0.05% v/v) was used as the surfactant when necessary. Trinexapac-ethyl (commercial product Primo Maxx, 11.3% active ingredient) was purchased from Syngenta Crop Protection Inc. (Greensboro, N.C.). ABA analogs, 8′ acetylene-ABA, acid (PBI-524), 8′ acetylene-ABA, ester (PBI-429), 8′ cyclopropane ester (PBI-696), or Tetralone, first carbon tail acetylene, ester (PBI-702), were obtained from Plant Biotechnology Institute, National Research Council of Canada (Saskatoon, Saskatchewan, Canada).
(§2) Chemical solutions were foliar applied to the turfgrass canopy at the rate of 4-gallons/1000 square foot (or 0.163 L/m^−2) immediately after finishing the preparation of solutions. After treatment, turfgrasses were arranged in a randomized complete block experimental design. Turfgrass quality, turfgrass height or clip fresh weight was measured on assigned dates. Turfgrass quality was visually rated on a 0-9 scale based on the color, uniformity, and density of the grass with 0 as the worst and 9 as the best. Turfgrass height was measured as the distance between canopy surface and soil. Clippings were collected form each plot; all plots were cut to a uniform height.
(§3) All experiments were randomized complete block experimental design. Data were analyzed by analysis of variance. Duncan's new multiple range tests at α=0.05 were used for mean separations.
Kentucky bluegrass sod was purchased from Deak sod farms, Inc. (Union Grove, Wis.). Grass was grown in the greenhouse for 94 days for establishment. Turfgrass was treated with one time foliar application of 50 ppm PBI-524, PBI-429, PBI-696 or PBI-702 alone or in combination with 250 ppm trinexapac-ethyl. The turfgrass was cut every 7 days. Turfgrass quality, turfgrass height, and clip weight were measured on days 7 and 35 after treatment.

In experiment [2] the test system is creeping bentgrass. Nature of the experiment: Golf course green field study on creeping bentgrass with PBI-702: turfgrass height, soil moisture, turf quality (Example 3). Format: in vivo, Penncross creeping bentgrass. To be noted: for Soil moisture / Turfgrass height / Turf quality: 50 ppm PBI-702 alone; for Turf quality: visual 0-9 scale, 9 best. How it is done:
Field studies were conducted at the nursery green or the practice green at Countryside golf course (Mundelein, Ill.). Both greens were sand based and growing Penncross creeping bentgrass. Grass was managed with typical Illinois golf course management practices.
as §1, §2, §3
Trinexapac-ethyl (25 ppm) or PBI-702 (50 ppm) were one time foliar applied alone or in combination to creeping bentgrass in the golf course green to investigate their effect on turfgrass quality, growth inhibition and soil moisture.

Setting [3] is: 7 days after treatment, 50 ppm ABA analog alone.
The mark [4] stands for this setting: 35 days after treatment, 50 ppm ABA analog alone.

Turning to `C#CC1(C)CC(=O)C=C(C)C1(O)C=CC(C)=CC(=O)O` (stereo not shown) [PBI-524, 8′ acetylene-ABA, acid], in experiment [1] (setting [3]), the “Clip Weight” value amounted to 0.5 g and the Turfgrass height is on record as 5.8 cm. For the same compound, in experiment [1] (7 days after treatment, 50 ppm ABA analog alone, visual 0-9 scale, 9 best), the Turfgrass quality is given as 6.6. The “Turfgrass height and clip weight compared to the control (in words)” value in experiment [1] (7 days after treatment, trinexapac-ethyl 250 ppm, PBI-524 or PBI-429 50 ppm, alone or combined) is “reduced turfgrass height and clip weight compared to the control”. In experiment [1] (setting [4]), the “Clip Weight” value came to 1.9 g; the Turfgrass height was 8.0 cm; the “Turfgrass height and clip weight (in words)” value was “no longer reduced turfgrass height and clip weight”.
Regarding `COC(=O)/C=C(/C)C#CC1(O)c2ccccc2C(=O)CC1(C)C` (stereo not shown) [PBI-702, Tetralone, first carbon tail acetylene, ester], in experiment [2] (4 days after treatment), the Soil moisture turned out to be 12.3% and the Turfgrass height was found to be 6.7 mm. In experiment [2] (7 days after treatment), the Soil moisture turned out to be 11.5%, the Turfgrass height came out at 6.5 mm and the Turf quality is given as 7.3. The “Reducing growth (in words)” value in experiment [2] (7 days after treatment, trinexapac-ethyl 25 ppm, PBI-702 50 ppm, alone or combined) is recorded as “effective at reducing growth”. In experiment [2] (38 days after treatment), the Soil moisture was found to be 12.4%, the Turfgrass height was determined as 5.5 mm and the Turf quality amounted to 7.6.
